What was measured:
Test in all cases: NCI SRB growth inhibition (single dose 10 µM / five-dose)
Format in all cases: cell-based, human
786–0 = test system: 786–0
Outline: (§1)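 Test agents were dissolved in DMSO at 400-fold the top final concentration, diluted in medium with 50 µg/mL gentamicin, and tested at five concentrations.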

A498 = test system: A498
Outline: as §1

HCT-15 = test system: HCT-15
Outline: as §1

HL-60(TB) = test system: HL-60(TB)
Outline: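 Growth inhibition is derived from seven absorbance readings per agent (Tz, C and five Ti). Where a parameter level is not reached or is exceeded, the value is given as greater or less than the highest or lowest concentration tested.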

HS 578 T = test system: HS 578 T
Outline: as §1

KM12 = test system: KM12
Outline: as §1

MALME-3 M = test system: MALME-3 M
Outline: as §1

MCF7 = test system: MCF7
Outline: as §1

MDA-MB-231/ATCC = test system: MDA-MB-231/ATCC
Outline: as §1

MDA-MB-468 = test system: MDA-MB-468
Outline: as §1

MOLT-4 = test system: MOLT-4
Outline: as §1

NCI-H226 = test system: NCI-H226
Outline: as §1

NCI-H23 = test system: NCI-H23
Outline: as §1

OVCAR-5 = test system: OVCAR-5
Outline: as §1

PC-3 = PC-3 (Prostate cancer), 10 µM
Outline: as §1

RXF 393 = test system: RXF 393
Outline: as §1

SF-268 = test system: SF-268
Outline: as §1

SF-539 = test system: SF-539
Outline: as §1

SK-MEL-28 = test system: SK-MEL-28
Outline: as §1

SK-MEL-5 = test system: SK-MEL-5
Outline: as §1

SNB-19 = test system: SNB-19
Outline: as §1

SW-620 = test system: SW-620
Outline: as §1

T-47D = test system: T-47D
Outline: as §1

U251 = test system: U251
Outline: as §1

UACC-62 = test system: UACC-62
Outline: as §1

UO-31 = test system: UO-31
Outline: as §1

For `COc1ccc(C=NNC(=O)c2ccc3[nH]c(-c4ccccc4)nc3c2)cc1O` [8e, N'-(3-Hydroxy-4-methoxybenzylidene)-2-phenyl-1H-benzo[d]imidazole-5-carbohydrazide], the inhibition at 10 µM (786–0; Homo sapiens, 786–0 (Renal cancer), 10 µM, read-out: GI%) was 16.6%, the inhibition at 10 µM (A498; Homo sapiens, A498 (Renal cancer), 10 µM, read-out: GI%) was under 5% and the inhibition at 10 µM (HCT-15; Homo sapiens, HCT-15 (Colon cancer), 10 µM, read-out: GI%) was under 5%. The inhibition at 10 µM (HL-60(TB); Homo sapiens, HL-60(TB) (Leukemia), 10 µM, read-out: GI%) was 24.7%, the inhibition at 10 µM (HS 578 T; Homo sapiens, HS 578 T (Breast cancer), 10 µM, read-out: GI%) was 6.89% and the inhibition at 10 µM (KM12; Homo sapiens, KM12 (Colon cancer), 10 µM, read-out: GI%) was 21.9%. For the same compound, the inhibition at 10 µM (MALME-3 M; Homo sapiens, MALME-3 M (Melanoma), 10 µM, read-out: GI%) was 78.4%, the inhibition at 10 µM (MCF7; Homo sapiens, MCF7 (Breast cancer), 10 µM, read-out: GI%) was 70.5% and the inhibition at 10 µM (MDA-MB-231/ATCC; Homo sapiens, MDA-MB-231/ATCC (Breast cancer), 10 µM, read-out: GI%) was under 5%. For the same compound, the inhibition at 10 µM (MDA-MB-468; Homo sapiens, MDA-MB-468 (Breast cancer), 10 µM, read-out: GI%) was 7.65%, the inhibition at 10 µM (MOLT-4; Homo sapiens, MOLT-4 (Leukemia), 10 µM, read-out: GI%) was 36.1% and the inhibition at 10 µM (NCI-H226; Homo sapiens, NCI-H226 (Non-small cell lung cancer), 10 µM, read-out: GI%) was 11.4%. For the same compound, the inhibition at 10 µM (NCI-H23; Homo sapiens, NCI-H23 (Non-small cell lung cancer), 10 µM, read-out: GI%) was under 5%, the inhibition at 10 µM (OVCAR-5; Homo sapiens, OVCAR-5 (Ovarian cancer), 10 µM, read-out: GI%) was under 5% and the inhibition at 10 µM (PC-3; Homo sapiens, read-out: GI%) was 11.5%. It also gave an inhibition at 10 µM (RXF 393; Homo sapiens, RXF 393 (Renal cancer), 10 µM, read-out: GI%) of under 5%, an inhibition at 10 µM (SF-268; Homo sapiens, SF-268 (CNS cancer), 10 µM, read-out: GI%) of 16% and an inhibition at 10 µM (SF-539; Homo sapiens, SF-539 (CNS cancer), 10 µM, read-out: GI%) of 32.2%. For the same compound, the inhibition at 10 µM (SK-MEL-28; Homo sapiens, SK-MEL-28 (Melanoma), 10 µM, read-out: GI%) was 28.9%, the inhibition at 10 µM (SK-MEL-5; Homo sapiens, SK-MEL-5 (Melanoma), 10 µM, read-out: GI%) was 39.5% and the inhibition at 10 µM (SNB-19; Homo sapiens, SNB-19 (CNS cancer), 10 µM, read-out: GI%) was under 5%. For the same compound, the inhibition at 10 µM (SW-620; Homo sapiens, SW-620 (Colon cancer), 10 µM, read-out: GI%) was under 5%, the inhibition at 10 µM (T-47D; Homo sapiens, T47D, T-47D (Breast cancer), 10 µM, read-out: GI%) was 39.3% and the inhibition at 10 µM (U251; Homo sapiens, U-251, U251 (CNS cancer), 10 µM, read-out: GI%) was 14.6%. The inhibition at 10 µM (UACC-62; Homo sapiens, UACC-62 (Melanoma), 10 µM, read-out: GI%) was 18.7% and the inhibition at 10 µM (UO-31; Homo sapiens, UO-31 (Renal cancer), 10 µM, read-out: GI%) was 38.2%.
With “N'-(2-Hydroxybenzylidene)-2-phenyl-1H-benzo[d]imidazole-5-carbohydrazide [8a]” the GI% (786–0; 786–0 (Renal cancer), 10 µM) was 91.76%, the GI50 (786–0; 786–0, Renal cancer, five-dose) was 3.84 µM and the GI% (A498; A498 (Renal cancer), 10 µM) was “– (GI% < 5%)”. For the same compound, the GI50 (A498; A498, Renal cancer, five-dose) was 16.9 µM, the GI% (HCT-15; HCT-15 (Colon cancer), 10 µM) was 94.00% and the GI50 (HCT-15; HCT-15, Colon cancer, five-dose) was 1.07 µM. For the same compound, the GI% (HL-60(TB); HL-60(TB) (Leukemia), 10 µM) was 95.58%, the GI50 (HL-60(TB); HL-60(TB), Leukemia, five-dose) was 3.08 µM and the GI% (HS 578 T; HS 578 T (Breast cancer), 10 µM) was “L (GI% > 100)”. For the same compound, the GI50 (HS 578 T; HS 578 T, Breast cancer, five-dose) was 2.49 µM, the GI% (KM12; KM12 (Colon cancer), 10 µM) was 84.00% and the GI50 (KM12; KM12, Colon cancer, five-dose) was 3.72 µM. The GI% (MALME-3 M; MALME-3 M (Melanoma), 10 µM) was 99.32%, the GI50 (MALME-3 M; MALME-3 M, Melanoma, five-dose) was 1.88 µM and the GI% (MCF7; MCF7 (Breast cancer), 10 µM) was 96.94%. For the same compound, the GI50 (MCF7; MCF7, Breast cancer, five-dose) was 2.63 µM, the GI% (MDA-MB-231/ATCC; MDA-MB-231/ATCC (Breast cancer), 10 µM) was 88.16% and the GI50 (MDA-MB-231/ATCC; MDA-MB-231/ATCC, Breast cancer, five-dose) was 2.03 µM. The GI% (MDA-MB-468; MDA-MB-468 (Breast cancer), 10 µM) was 99.81%, the GI50 (MDA-MB-468; MDA-MB-468, Breast cancer, five-dose) was 3.45 µM and the GI% (MOLT-4; MOLT-4 (Leukemia), 10 µM) was 89.54%. It also gave a GI50 (MOLT-4; MOLT-4, Leukemia, five-dose) of 1.62 µM, a GI% (NCI-H226; NCI-H226 (Non-small cell lung cancer), 10 µM) of 93.32% and a GI50 (NCI-H226; NCI-H226, Non-small cell lung cancer, five-dose) of 4.02 µM. It also gave a GI% (NCI-H23; NCI-H23 (Non-small cell lung cancer), 10 µM) of 83.12%, a GI50 (NCI-H23; NCI-H23, Non-small cell lung cancer, five-dose) of 3.31 µM and a GI% (OVCAR-5; OVCAR-5 (Ovarian cancer), 10 µM) of 77.04%. The GI50 (OVCAR-5; OVCAR-5, Ovarian cancer, five-dose) was 8.5 µM, the GI% (PC-3) was 90.74% and the GI% (RXF 393; RXF 393 (Renal cancer), 10 µM) was “L (GI% > 100)”. The GI50 (RXF 393; RXF 393, Renal cancer, five-dose) was 2.37 µM, the GI% (SF-268; SF-268 (CNS cancer), 10 µM) was “L (GI% > 100)” and the GI50 (SF-268; SF-268, CNS cancer, five-dose) was 2.78 µM. For the same compound, the GI% (SF-539; SF-539 (CNS cancer), 10 µM) was “L (GI% > 100)”, the GI50 (SF-539; SF-539, CNS cancer, five-dose) was 2.74 µM and the GI% (SK-MEL-28; SK-MEL-28 (Melanoma), 10 µM) was 82.67%. The GI50 (SK-MEL-28; SK-MEL-28, Melanoma, five-dose) was 4.62 µM, the GI% (SK-MEL-5; SK-MEL-5 (Melanoma), 10 µM) was 85.73% and the GI50 (SK-MEL-5; SK-MEL-5, Melanoma, five-dose) was 3.75 µM. The GI% (SNB-19; SNB-19 (CNS cancer), 10 µM) was 95.02%, the GI50 (SNB-19; SNB-19, CNS cancer, five-dose) was 4.16 µM and the GI% (SW-620; SW-620 (Colon cancer), 10 µM) was 77.39%. The GI50 (SW-620; SW-620, Colon cancer, five-dose) was 3.48 µM, the GI% (T-47D; T-47D (Breast cancer), 10 µM) was 93.65% and the GI50 (T-47D; T-47D, Breast cancer, five-dose) was 3.38 µM. The GI% (U251; U251 (CNS cancer), 10 µM) was “L (GI% > 100)”, the GI50 (U251; U251, CNS cancer, five-dose) was 2.11 µM and the GI% (UACC-62; UACC-62 (Melanoma), 10 µM) was 75.88%. The GI50 (UACC-62; UACC-62, Melanoma, five-dose) was 3.66 µM, the GI% (UO-31; UO-31 (Renal cancer), 10 µM) was 86.22% and the GI50 (UO-31; UO-31, Renal cancer, five-dose) was 0.6 µM.
